# Assay results from patent US20150218173A1, “SUBSTITUTED INDAZOL-PYRROLOPYRIMIDINES USEFUL IN THE TREATMENT OF HYPERFOLIFERATIVE DISORDERS” (BAYER PHARMA AKTIENGESELLSCHAFT, priority 2012, published 2015).
# Target: T1, human full-length MKNK1 (Homo sapiens, UniProt Q9BUB5, T385D)
# T1 construct: GST (N); purchased Carna Biosciences 02-145; host or cells: insect cells (baculovirus expression system)
# Assay: MKNK1 kinase high ATP assay (TR-FRET)
# Format: biochemical
# Conditions: high ATP (2 mM final), 15 min preincubation with enzyme
# Description: MKNK1-inhibitory activity at high ATP of compounds of the present invention after their preincubation with MKNK1 was quantified employing the TR-FRET-based MKNK1 high ATP assay as described in the following paragraphs.
# A recombinant fusion protein of Glutathione-S-Transferase (GST, N-terminally) and human full-length MKNK1 (amino acids 1-424 and T344D of accession number BAA 19885.1), expressed in insect cells using baculovirus expression system and purified via glutathione sepharose affinity chromatography, was purchased from Carna Biosciences (product no 02-145) and used as enzyme. As substrate for the kinase reaction the biotinylated peptide biotin-Ahx-IKKRKLTRRKSLKG (C-terminus in amide form) was used, which can be purchased e.g. from the company Biosyntan (Berlin-Buch, Germany).
# For the assay 50 nL of a 100 fold concentrated solution of the test compound in DMSO was pipetted into a black low volume 384 well microtiter plate (Greiner Bio-One, Frickenhausen, Germany), 2 μL of a solution of MKNK1 in aqueous assay buffer [50 mM HEPES pH 7.5, 5 mM MgCl2, 1.0 mM dithiothreitol, 0.005% (v/v) Nonidet-P40 (Sigma)] was added and the mixture was incubated for 15 min at 22° C. to allow pre-binding of the test compounds to the enzyme before the start of the kinase reaction. Then the kinase reaction was started by the addition of 3 μL of a solution of adenosine-tri-phosphate (ATP, 3.3 mM=>final conc. in the 5 μL assay volume is 2 mM) and substrate (0.1 μM=>final conc. in the 5 μL assay volume is 0.06 μM) in assay buffer and the resulting mixture was incubated for a reaction time of 30 min at 22° C. The concentration of MKNK1 was adjusted depending of the activity of the enzyme lot and was chosen appropriate to have the assay in the linear range, typical concentrations were in the range of 0.003 μg/mL. The reaction was stopped by the addition of 5 μL of a solution of TR-FRET detection reagents (5 nM streptavidine-XL665 [Cisbio Bioassays, Codolet, France] and 1 nM anti-ribosomal protein S6 (pSer236)-antibody from Invitrogen [#44921G] and 1 nM LANCE EU-W1024 labeled ProteinG [Perkin-Elmer, product no. AD0071]) in an aqueous EDTA-solution (100 mM EDTA, 0.1% (w/v) bovine serum albumin in 50 mM HEPES pH 7.5).
# The resulting mixture was incubated for 1 h at 22° C. to allow the formation of complex between the phosphorylated biotinylated peptide and the detection reagents. Subsequently the amount of phosphorylated substrate was evaluated by measurement of the resonance energy transfer from the Eu-chelate to the streptavidine-XL. Therefore, the fluorescence emissions at 620 nm and 665 nm after excitation at 350 nm were measured in a TR-FRET reader, e.g. a Rubystar (BMG Labtechnologies, Offenburg, Germany) or a Viewlux (Perkin-Elmer). The ratio of the emissions at 665 nm and at […] was taken as the measure for the amount of phosphorylated substrate. The data were normalised (enzyme reaction without inhibitor=0% inhibition, all other assay components but no enzyme=100% inhibition).
# T1 sequence (Q9BUB5 1-424 isoform Q9BUB5-2 T344D): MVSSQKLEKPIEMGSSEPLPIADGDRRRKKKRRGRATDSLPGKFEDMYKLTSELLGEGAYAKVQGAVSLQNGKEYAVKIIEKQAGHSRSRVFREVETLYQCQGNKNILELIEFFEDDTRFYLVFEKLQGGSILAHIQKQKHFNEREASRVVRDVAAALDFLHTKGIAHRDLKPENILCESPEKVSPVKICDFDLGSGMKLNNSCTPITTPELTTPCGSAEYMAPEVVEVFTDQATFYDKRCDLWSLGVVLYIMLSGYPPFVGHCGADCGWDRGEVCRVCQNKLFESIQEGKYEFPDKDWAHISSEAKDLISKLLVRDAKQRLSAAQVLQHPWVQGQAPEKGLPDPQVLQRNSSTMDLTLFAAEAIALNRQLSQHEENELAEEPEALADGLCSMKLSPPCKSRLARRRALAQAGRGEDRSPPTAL
row,IC50 [µM],Structure (SMILES)
1,0.021,"CC(C)Cc1[nH]c2ncnc(Nc3ccc4[nH]ncc4c3)c2c1C(C)C [Example 39, N-(1H-Indazol-5-yl)-6-(2-methylpropyl)-5-(propan-2-yl)-7H-pyrrolo[2,3-d]pyrimidin-4-amine]"
2,0.048,"O=C(c1[nH]c2ncnc(Nc3ccc4[nH]ncc4c3)c2c1Br)N1CCOCC1 [Example 44, [5-Bromo-4-(1H-indazol-5-ylamino)-7H-pyrrolo[2,3-d]pyrimidin-6-yl](morpholin-4-yl)methanone]"
3,0.022,"Cc1c[nH]c2ncnc(Nc3ccc4[nH]ncc4c3)c12 [Example 18, N-(1H-Indazol-5-yl)-5-methyl-7H-pyrrolo[2,3-d]pyrimidin-4-amine]"
4,0.025,"CCOC(=O)c1cc2c(Nc3ccc4[nH]ncc4c3)ncnc2[nH]1 [Example 4, Ethyl 4-(1H-indazol-5-ylamino)-7H-pyrrolo[2,3-d]pyrimidine-6-carboxylate]"
5,0.01,"Brc1c[nH]c2ncnc(Nc3ccc4[nH]ncc4c3)c12 [Example 2, 5-Bromo-N-(1H-indazol-5-yl)-7H-pyrrolo[2,3-d]pyrimidin-4-amine]"
6,0.029,"c1nc(Nc2ccc3[nH]ncc3c2)c2cc(C3CCOCC3)[nH]c2n1 [Example 24, N-(1H-Indazol-5-yl)-6-(tetrahydro-2H-pyran-4-yl)-7H-pyrrolo[2,3-d]pyrimidin-4-amine]"
7,0.058,"CCc1[nH]c2ncnc(Nc3ccc4[nH]ncc4c3)c2c1C [Example 1, 6-Ethyl-N-(1H-indazol-5-yl)-5-methyl-7H-pyrrolo[2,3-d]pyrimidin-4-amine]"
8,0.045,"O=C(c1[nH]c2ncnc(Nc3ccc4[nH]ncc4c3)c2c1Br)N1CCCCC1 [Example 45, [5-Bromo-4-(1H-indazol-5-ylamino)-7H-pyrrolo[2,3-d]pyrimidin-6-yl](piperidin-1-yl)methanone]"
9,0.016,"c1ccc(-c2c[nH]c3ncnc(Nc4ccc5[nH]ncc5c4)c23)cc1 [Example 15, N-(1H-Indazol-5-yl)-5-phenyl-7H-pyrrolo[2,3-d]pyrimidin-4-amine]"
10,0.005,"CCCCNC(=O)c1cc2c(Nc3ccc4[nH]ncc4c3)ncnc2[nH]1 [Example 22, N-Butyl-4-(1H-indazol-5-ylamino)-7H-pyrrolo[2,3-d]pyrimidine-6-carboxamide]"
